Laboratory results as given in patent US20140134178A1, “PHOSPHORYLATION OF HISTONES AND USES THEREOF” (H. LEE MOFFITT CANCER CENTER AND RESEARCH INSTITUTE, priority 2012, published 2014).
“Also recorded” adds a separate entry of the source.

How the values were obtained:
Ack1 [1] = target: T1, Ack1 (Homo sapiens, UniProt Q07912); format: cell-based; design: endogenous in cells; host or cells: LAPC4
Procedure: The prostate cancer derived cells, LAPC4 were treated with AIM-100 (7 uM, 16 hours). The equal amount of cell lysates were subjected to immunoblotting with H3K9me3 and histone H3 antibodies. […] The histone H3 antibodies were used as a control to indicate equal amount of protein.
LAPC4 cells were treated with EGF or EGF and AIM-100 and the lysates were immunoblotted with H3K9 dimethyl and H3K27 dimethyl antibodies.

Ack1 [2] = assay: Ack1 phosphorylation of histone H3 at Tyr99 in ligand-treated cell lines; format: cell-based
Excerpt: The discovery was made that Ack1 phosphorylates histone H3 at tyrosine 99. To delineate functional consequences of H3 Ty99-phosphorylation, phospho-antibodies were raised. […] Thus, marking of chromatin with H3-Tyr99-phosphorylation within AR-target gene promoters may suppress repressive dimethylation leading to transcriptional activation in androgen-deprived environment of CRPC tumors. This study uncovers a previously unknown mechanism of regulation of pTyr267-AR-target gene expression, which can be therapeutically reversed by suppression of Ack1/AR/pTyr99-H3 signaling by AIM-100.

pTyr267-AR = assay: ChIP-qPCR for pTyr267-AR binding to PSA, NKX3.1 and TMPRSS2 AREs in LAPC4 cells; format: cell-based; conditions: 0.8 μM, 16 hr
Procedure: LAPC4 cells were treated with DHT (5 nM, 16 hr), EGF (10 ng/ml, 1 hr), or EGF and AIM-100 (0.8 μM, 16 hr) and ChIP analysis for pTyr267-AR binding to the PSA, NKX3.1 and TMPRSS2 AREs was performed followed by qPCR. Ack1 inhibition by AIM-100 suppressed recruitment of pTyr-AR to PSA, NKX3,1 and TMPRSS2 promoters (FIGS. 8A-8C).

Ack1 [3] = target: T1, Ack1; format: biochemical; design: endogenous in cells; host or cells: LAPC4; conditions: purified Ack1, H4 peptide, ELISA with pY88 antibodies
Procedure: WEE1 and Ack1 are two non-receptor tyrosine kinases or NRTKs that have known nuclear functions. To determine whether WEE1 and Ack1 can directly target H4 for Tyr88-phosphorylation, this study performed in vitro kinase assay. In brief, the Streptavidin coated 96-well plates (R&D systems) were incubated with biotinylated H4-derived peptide […] (SEQ ID NO: 64) for 1 hour. The plates were washed and the purified WEE1 or Ack1 were added in kinase buffer (20 mM HEPES, 150 mM NaCl, 0.5% Triton X-100, 10% Glycerol, phosphatase and protease inhibitors) containing ATP and MgCl2. After 2 hours of incubation, plates were washed with phosphate buffered saline containing 0.1% Tween 20 (PBST) and blocked in 3% BSA. The pY88-H4 antibodies (at 1:500 dilution) were added and incubated for 1 hour. Unbound antibodies were washed and HRP-conjugated anti-mouse secondary Antibodies (1:2000) were added. Magnitude of phosphorylation was detected using developer solution (OPD tablets, Sigma) and the plates were read at 450 nm. As a negative control, no kinase and no peptide reactions were used. The biotinylated phosphopeptide […]p[…] (SEQ ID NO: 65) was used as a positive control.

Xenopus laevis embryos = assay: Xenopus embryo injection, gastrulation/epiboly phenotype
Excerpt: Table 4 provides the phenotype distribution for surviving embryos (raw data are identical to those in Table 3).

Ack1 [4] = target: T1, Ack1; assay: H4 Tyr51-phosphorylation in EGF-treated HEK293T cells (IP/immunoblot); format: cell-based; design: endogenous in cells; host or cells: HEK293T; conditions: serum starved HEK293T, EGF+AIM-100
Procedure: To examine whether H4 is a Ack1 kinase substrate, cells were treated with EGF or EGF+Ack1 inhibitor, AIM-100 (Mahajan, K., et al. Prostate 70, 1274-1285 (2010)). Specifically, serum starved HEK293T were treated with EGF or EGF+AIM-100 and cells were harvested. […] Equal amounts of lysates were immunoblotted with H4 antibody or pTyr284-Ack1 antibody.

[5] = system: PSA, NKX3,1 and TMPRSS2 genes; assay: Testosterone-independent expression of AR-target genes; format: cell-based
[6] = system: LNCaP-caAck expressing cells; assay: Prostate xenograft tumor growth, LNCaP-caAck cells in castrated nude male mice; format: in vivo; conditions: 4 mg/kg of body weight per injection, five times
Procedure: Castrated nude male mice were injected with LNCaP-caAck expressing cells. Mice were injected with AIM-100 (4 mg/kg of body weight per injection) on five times (n=8) and tumor volumes were measured.

Ack1 [7] = target: T2, Ack1 (Homo sapiens, UniProt Q07912, E346K); format: biochemical; conditions: 5 uM for 1 hour at 30° C.
T2 construct: HA; made in house
T2 sequence (Q07912 whole entry E346K): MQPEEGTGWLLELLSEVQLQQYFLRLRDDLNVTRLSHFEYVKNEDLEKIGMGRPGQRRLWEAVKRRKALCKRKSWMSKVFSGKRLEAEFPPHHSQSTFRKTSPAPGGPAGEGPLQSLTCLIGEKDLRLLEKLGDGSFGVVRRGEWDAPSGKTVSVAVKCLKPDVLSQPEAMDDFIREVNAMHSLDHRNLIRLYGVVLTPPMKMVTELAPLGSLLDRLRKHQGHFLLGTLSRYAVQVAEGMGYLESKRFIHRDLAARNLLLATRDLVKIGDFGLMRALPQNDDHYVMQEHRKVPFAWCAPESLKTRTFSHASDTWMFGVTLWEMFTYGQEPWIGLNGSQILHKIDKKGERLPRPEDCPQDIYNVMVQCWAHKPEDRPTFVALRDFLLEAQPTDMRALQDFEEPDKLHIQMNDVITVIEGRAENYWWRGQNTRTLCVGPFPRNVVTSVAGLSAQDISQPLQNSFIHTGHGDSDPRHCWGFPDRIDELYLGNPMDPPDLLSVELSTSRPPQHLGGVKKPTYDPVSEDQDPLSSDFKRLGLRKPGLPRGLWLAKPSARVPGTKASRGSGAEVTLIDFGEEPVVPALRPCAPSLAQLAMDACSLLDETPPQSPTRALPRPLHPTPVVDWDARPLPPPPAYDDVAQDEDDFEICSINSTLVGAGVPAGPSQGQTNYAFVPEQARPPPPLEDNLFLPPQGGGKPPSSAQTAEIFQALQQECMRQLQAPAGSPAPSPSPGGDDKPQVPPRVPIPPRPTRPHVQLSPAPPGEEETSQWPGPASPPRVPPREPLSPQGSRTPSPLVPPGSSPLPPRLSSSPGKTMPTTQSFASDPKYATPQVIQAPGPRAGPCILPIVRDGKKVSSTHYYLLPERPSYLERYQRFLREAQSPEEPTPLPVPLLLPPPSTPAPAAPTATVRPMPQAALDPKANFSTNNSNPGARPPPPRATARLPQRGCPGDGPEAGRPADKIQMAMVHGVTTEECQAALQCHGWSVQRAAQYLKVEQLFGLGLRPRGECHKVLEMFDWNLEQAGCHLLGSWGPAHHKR
Procedure: To test whether Ack1 directly phosphorylates H4, in vitro kinase assay (Mahajan, K., et al. PLoS One 5, e9646 (2010)) was performed. […] HEK293 cells were treated with EGF or EGF+AIM-100 (5 uM, 14 hour) and lysates were immunoprecipitated with Ack1 antibodies followed by immunoblotting with H4 antibodies.

[8] = system: S. cerevisiae wildtype and H2BY40A mutants; assay: Yeast spot growth assay on YPD plates with MMS; format: cell-based, Saccharomyces cerevisiae; conditions: in contrast to wild type cells, growth 72 h post-plating
Procedure: Wt and H2BY40A mutants were serially diluted and spotted on YPD plates in the absence or presence of MMS and growth was assessed 72 h post-plating.
To test whether excess of histones interfere with the ability of cells to repair DNA damage, S. cerevisiae wildtype (Wt) and H2BY40A mutants were exposed to DNA alkylating agent Methylmethane sulphonate (MMS). MMS inhibits DNA replication by methylating adenine or guanine in the DNA to cause base mispairing and stalling of replication forks, until the mutated/alkylated bases are excised out and replaced with the normal bases by the DNA alkyl transferases or the nucleotide repair machinery. […] Rad53 is a functional homologue of human Chk1 and Chk2 in budding yeast. It not only senses DNA replication stress during S phase but also acts as a surveillance machinery to detect excess histones that are not packaged into chromatin and targets them for degradation.

[9] = system: pTyr37-H2B upstream of Hist1 cluster; assay: Native ChIP-qPCR with pTyr37-H2B antibody, Site I and II upstream of Hist1 cluster, synchronized MEFs; format: cell-based, mouse; conditions: 6.30 hours post-release
Procedure: MEFs or H1975 were grown to 60-70% confluency in serum rich media. Thymidine is added at a final concentration of 2 mM and incubated for 17 hours. Cells were washed three times with phosphate buffered saline (PBS) and fresh serum containing media was added. After 10 hours, thymidine was added again to 2 mM final concentration. The cells were incubated for 17 hours and washed three times with PBS, replaced with serum containing media and time points were collected.
As a first step, extensive standardization of pTyr37-H2B antibodies were performed for its usage in ChIP. CHIP was performed using the Active Motif kit as per manufacturer's instructions. For ChIP synchronized MEFs were harvested at 0 and 6.30 hour post thymidine release (5×10^7 cells). Cells pellets were lysed in RLB buffer (Mahajan, N. P. et al. Proc. Nat. Acad. Sci. U.S.A. 104, 8438-8443 (2007); Mahajan, K. et al. Prostate 70, 1274-1285 (2010)) on ice for 10 minutes and sonicated for 25 seconds to shear DNA to an average length of 300-500 bp. The soluble chromatin was incubated overnight at 4° C. with pTyr37-H2B antibody. 20 μl of protein-A agarose was added and the beads were washed sequentially and DNA was eluted. […] Pellets were resuspended and the resulting DNA was quantified on a NanoDrop spectrophotometer. Extrapolation to the original chromatin volume allowed quantitation of the total chromatin yield. […]

[10] = system: WEE1 expressing cancer cell lines; conditions: cited from earlier work
[11] = system: core histone genes located in Hist1 cluster; assay: qRT-PCR of histone genes in synchronized cells (8-histone gene signature); format: cell-based; conditions: MK1775 0.6 uM, 14 hr; 8.30 hours post-release
Procedure: Human cells have 55 distinct histone genes each encoding a fraction of core histones. This study determined histone levels using 20 of these genes. In untreated cells, rapid decrease in transcripts of all of these histone genes was observed when RNA levels of 6.30 hours post-release samples (late S phase) were compared with 8.30 hours post-release (G2/M phase) samples (FIG. 33a-h).

[12] = system: core histone genes in Hist1 cluster; assay: Quantitative RT-PCR of core histone transcripts in synchronized MEFs; format: cell-based, mouse; conditions: MK1775 0.625 μM, 14 hr; 8.30 hours post-release
Procedure: MEFs or H1975 were grown to 60-70% confluency in serum rich media. Thymidine is added at a final concentration of 2 mM and incubated for 17 hours. Cells were washed three times with phosphate buffered saline (PBS) and fresh serum containing media was added. After 10 hours, thymidine was added again to 2 mM final concentration. The cells were incubated for 17 hours and washed three times with PBS, replaced with serum containing media and time points were collected. All RT reactions were done (Mahajan, K. et al. PLoS One 5, e9646 (2010)) at the same time so that the same reactions could be used for all gene studies. For the construction of standard curves, serial dilutions of pooled sample RNA were used (50, 10, 2, 0.4, 0.08, and 0.016 ng) per reverse transcriptase reaction. One “no RNA” control and one “no Reverse Transcriptase” (No RT) controls were included for the standard curve. Three reactions were performed for each sample: 10 ng, 0.8 ng, and a No RT (10 ng) control. Real-time quantitative PCR analyses were performed using the ABI PRISM 7900HT Sequence Detection System (Applied Biosystems). […] Data were analyzed using SDS software version 2.2.2 and exported into an Excel spreadsheet. […]

[13] = system: NPAT and RNA polymerase II at site II; assay: ChIP-qPCR with NPAT or RNA polymerase II antibodies at Site II, synchronized MEFs; format: cell-based, mouse; conditions: 6.30 hours post-release
Procedure: As a first step, extensive standardization of pTyr37-H2B antibodies were performed for its usage in ChIP. CHIP was performed using the Active Motif kit as per manufacturer's instructions. For ChIP synchronized MEFs were harvested at 0 and 6.30 hour post thymidine release (5×10^7 cells). Cells pellets were lysed in RLB buffer (Mahajan, N. P. et al. Proc. Nat. Acad. Sci. U.S.A. 104, 8438-8443 (2007); Mahajan, K. et al. Prostate 70, 1274-1285 (2010)) on ice for 10 minutes and sonicated for 25 seconds to shear DNA to an average length of 300-500 bp. The soluble chromatin was incubated overnight at 4° C. with pTyr37-H2B antibody. 20 μl of protein-A agarose was added and the beads were washed sequentially and DNA was eluted. Genomic DNA (Input) was prepared by treating aliquots of chromatin with RNase, proteinase-K followed by ethanol precipitation. Pellets were resuspended and the resulting DNA was quantified on a NanoDrop spectrophotometer. Extrapolation to the original chromatin volume allowed quantitation of the total chromatin yield. An aliquot of chromatin (20-30 μg) was pre-cleared with protein-A agarose beads (Invitrogen). Genomic DNA regions of interest were isolated using pTyr37-H2B antibody. […]
To understand the potential mechanism of repression of histone transcription the role of NPAT was assessed. […]

[14] = system: cancers and cancer cell lines; conditions: cited from earlier work
[15] = Table 3, antibodies 200 ng/em, AIM-100 200 pM/em

T1 sequence (Q07912 whole entry): as the sequence (Q07912 whole entry E346K) above, with K346E counted along it

c1ccc(-c2oc3ncnc(NC[C@@H]4CCCO4)c3c2-c2ccccc2)cc1 [AIM-100]
H3K9 and K27 dimethylation and trimethylation (Ack1 [1]): increased
H3 K9 trimethylation (Ack1 [1]; LAPC4 cells, 7 uM, 16 hours): increased; also recorded: significant increase
H3K9 and K27 dimethylation (Ack1 [1]; LAPC4 cells, EGF and AIM-100): increased
Ack1 phosphorylation of H3 at Tyr99 (Ack1 [2]): significantly compromised
recruitment of pTyr-AR to PSA, NKX3,1 and TMPRSS2 promoters (pTyr267-AR): suppressed
H4 Tyr88-phosphorylation (Ack1 [3]): significantly decreased; also recorded: significantly reduced
abn/delay, gastrulation is abnormal or delayed (% of total embryos) (Xenopus laevis embryos; [15]): 6.7%
abn/delay, gastrulation is abnormal or delayed (number of embryos) (Xenopus laevis embryos; [15]): 15
dead (% of total embryos) (Xenopus laevis embryos; [15]): 43%
dead (number of embryos) (Xenopus laevis embryos; [15]): 97
epib blk, epiboly block phenotype (% of total embryos) (Xenopus laevis embryos; [15]): 29%
epib blk, epiboly block phenotype (number of embryos) (Xenopus laevis embryos; [15]): 65
epib red, partial phenotype (% of total embryos) (Xenopus laevis embryos; [15]): 8%
epib red, partial phenotype (number of embryos) (Xenopus laevis embryos; [15]): 18
norm. (% of total embryos) (Xenopus laevis embryos; [15]): 11%
norm. (number of embryos) (Xenopus laevis embryos; [15]): 24
Tot survivors (Xenopus laevis embryos; Table 4): 128
abn/delay (% of surviving embryos) (Xenopus laevis embryos; Table 4, surviving embryos): (12%)
abn/delay (number of surviving embryos) (Xenopus laevis embryos; Table 4, surviving embryos): 15
epib blk (number of surviving embryos) (Xenopus laevis embryos; Table 4, surviving embryos): 65
epib red (number of surviving embryos) (Xenopus laevis embryos; Table 4, surviving embryos): 18
normal (% of surviving embryos) (Xenopus laevis embryos; Table 4, surviving embryos): 19%
normal (number of surviving embryos) (Xenopus laevis embryos; Table 4, surviving embryos): 24
mortality rates (Xenopus laevis embryos; by the onset of gastrulation, ~20 hours after microinjection at the 2-cell stage, 16° C.): 43-45%
mortality at the onset of gastrulation versus controls (Xenopus laevis embryos; in vivo): Neither pTyr51-H4 nor AIM-100 lead to increased mortality
timing or pattern of early cleavages (Xenopus laevis embryos; in vivo): did not alter
epib blk, epiboly block/involution failure (% of surviving embryos) (Xenopus laevis embryos; surviving embryos): 51%
epib red, partial reduced epiboly phenotype (% of surviving embryos) (Xenopus laevis embryos; surviving embryos): 14%
epib blk, epiboly block/involution failure (% of surviving embryos) (Xenopus laevis embryos; surviving embryos, listed as AIM 100): (51%)
H4 pTyr51-phosphorylation (Ack1 [4]): almost complete loss
testosterone-independent expression of PSA, NKX3,1 and TMPRSS2 genes [5]: suppressed
prostate xenograft tumor growth [6]: mitigated; also recorded: partially suppresses
H4 pTyr51-phosphorylation (Ack1 [7]): abrogated

COS(C)(=O)=O [MMS, Methylmethane sulphonate]
sensitivity of H2BY40A mutants [8]: acute sensitivity; also recorded: marked sensitivity

MK-1775
occurrence of pTyr37-H2B at site I and II [9]: significantly reduced
apoptosis [10]: selectively induce apoptosis
histone mRNA levels [11]: did not decrease
histone mRNA levels [12]: significant increase
recruitment of NPAT and RNA polymerase II [13]: binding was detected
sensitization to DNA damaging agents such as gemcitabine, 5-fluorouracil [14]: able to sensitize
